Laboratory results as given in PubChem BioAssay AID2060899 (Molecular Pharmacology Branch, DTP, NCI, 2025).

Test system: 565726-208-R1-J5-PDC complex spheroids, growth inhibition
Experiment: Anticancer human tumor 565726-208-R1-J5-PDC patient-derived pancreatic adenocarcinoma cell line growth inhibition [RAS]
Details: for IC50: curve of first compound; for viability, T/C: stronger effect = lower value
Summary of the method: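 Tumour cells grown as complex spheroids with HUVEC endothelial cells and mesenchymal stem cells, treated with RAS pathway inhibitor combinations. Each agent spans half-log steps from near clinical Cmax, or 10 microM where Cmax is unknown.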
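Also: spheroids exposed to compounds for seven days before readout.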
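For viability, T/C in this document: 100% = DMSO vehicle control viability.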

CC(C)n1nc(-c2ccc3oc(N)nc3c2)c2c(N)ncnc21 + CCn1c(-c2cccnc2C(C)OC)c2c3cc(ccc31)N1CCOC(CC(NC(=O)C(C(C)C)N(C)C(=O)C3(F)CCN(C(=O)C#CC(C)(C)N(C)C)CC3)C(=O)N3CCCC(N3)C(=O)OCC(C)(C)C2)C1 showed an IC50 (second compound 0.000949 µM) of 19.2 nM, an IC50 (second compound 0.003 µM) of 26.8 nM and an IC50 (second compound 0.00949 µM) of 24.5 nM. For the same compound, the IC50 (second compound 0.03 µM) was 23.1 nM, the IC50 (second compound 0.0949 µM) was 18.8 nM and the IC50 (second compound 0.3 µM) was 13 nM. The viability, T/C (second compound 0.000949 µM, first compound 0.000316 µM) was 95.6%, the viability, T/C (second compound 0.000949 µM, first compound 0.001 µM) was 91.2% and the viability, T/C (second compound 0.000949 µM, first compound 0.00316 µM) was 91.5%. The viability, T/C (second compound 0.000949 µM, first compound 0.01 µM) was 59.8%, the viability, T/C (second compound 0.000949 µM, first compound 0.0316 µM) was 43.4% and the viability, T/C (second compound 0.000949 µM, first compound 0.1 µM) was 27.5%. The viability, T/C (second compound 0.003 µM, first compound 0.000316 µM) was 101%, the viability, T/C (second compound 0.003 µM, first compound 0.001 µM) was 90.5% and the viability, T/C (second compound 0.003 µM, first compound 0.00316 µM) was 85.2%. For the same compound, the viability, T/C (second compound 0.003 µM, first compound 0.01 µM) was 67.1%, the viability, T/C (second compound 0.003 µM, first compound 0.0316 µM) was 46.5% and the viability, T/C (second compound 0.003 µM, first compound 0.1 µM) was 28.1%. For the same compound, the viability, T/C (second compound 0.00949 µM, first compound 0.000316 µM) was 103%, the viability, T/C (second compound 0.00949 µM, first compound 0.001 µM) was 93.9% and the viability, T/C (second compound 0.00949 µM, first compound 0.00316 µM) was 86.8%. The viability, T/C (second compound 0.00949 µM, first compound 0.01 µM) was 69.8%, the viability, T/C (second compound 0.00949 µM, first compound 0.0316 µM) was 43.2% and the viability, T/C (second compound 0.00949 µM, first compound 0.1 µM) was 26.9%. For the same compound, the viability, T/C (second compound 0.03 µM, first compound 0.000316 µM) was 83.2%, the viability, T/C (second compound 0.03 µM, first compound 0.001 µM) was 91% and the viability, T/C (second compound 0.03 µM, first compound 0.00316 µM) was 79%. For the same compound, the viability, T/C (second compound 0.03 µM, first compound 0.01 µM) was 68.8%, the viability, T/C (second compound 0.03 µM, first compound 0.0316 µM) was 43% and the viability, T/C (second compound 0.03 µM, first compound 0.1 µM) was 26.7%. The viability, T/C (second compound 0.0949 µM, first compound 0.000316 µM) was 93%, the viability, T/C (second compound 0.0949 µM, first compound 0.001 µM) was 92.1% and the viability, T/C (second compound 0.0949 µM, first compound 0.00316 µM) was 82.5%. For the same compound, the viability, T/C (second compound 0.0949 µM, first compound 0.01 µM) was 62.1%, the viability, T/C (second compound 0.0949 µM, first compound 0.0316 µM) was 40.2% and the viability, T/C (second compound 0.0949 µM, first compound 0.1 µM) was 25.1%. For the same compound, the viability, T/C (second compound 0.3 µM, first compound 0.000316 µM) was 89.3%, the viability, T/C (second compound 0.3 µM, first compound 0.001 µM) was 85.1% and the viability, T/C (second compound 0.3 µM, first compound 0.00316 µM) was 75.2%. It also gave a viability, T/C (second compound 0.3 µM, first compound 0.01 µM) of 54.8%, a viability, T/C (second compound 0.3 µM, first compound 0.0316 µM) of 33.8% and a viability, T/C (second compound 0.3 µM, first compound 0.1 µM) of 24%.
CCC(CC)c1cc(NC2CCC(N)C2)n2nccc2n1 (centres undefined) + C#Cc1c(F)ccc2cc(O)cc(-c3ncc4c(N5CC6CCC(C5)N6)nc(OCC56CCCN5CC(F)C6)nc4c3F)c12 showed an IC50 (second compound 0.0316 µM) of 1460 nM, an IC50 (second compound 0.1 µM) of 1250 nM and an IC50 (second compound 0.316 µM) of 1360 nM. It also gave an IC50 (second compound 1 µM) of 1030 nM, an IC50 (second compound 3.16 µM) of 665 nM and an IC50 (second compound 10 µM) of 426 nM. It also gave a viability, T/C (second compound 0.0316 µM, first compound 0.0316 µM) of 111%, a viability, T/C (second compound 0.0316 µM, first compound 0.1 µM) of 163% and a viability, T/C (second compound 0.0316 µM, first compound 0.316 µM) of 113%. The viability, T/C (second compound 0.0316 µM, first compound 1 µM) was 74.5%, the viability, T/C (second compound 0.0316 µM, first compound 3.16 µM) was 1.28% and the viability, T/C (second compound 0.0316 µM, first compound 10 µM) was 1.5%. It also gave a viability, T/C (second compound 0.1 µM, first compound 0.0316 µM) of 132%, a viability, T/C (second compound 0.1 µM, first compound 0.1 µM) of 138% and a viability, T/C (second compound 0.1 µM, first compound 0.316 µM) of 96.9%. It also gave a viability, T/C (second compound 0.1 µM, first compound 1 µM) of 70.2%, a viability, T/C (second compound 0.1 µM, first compound 3.16 µM) of 1.11% and a viability, T/C (second compound 0.1 µM, first compound 10 µM) of 1.87%. It also gave a viability, T/C (second compound 0.316 µM, first compound 0.0316 µM) of 133%, a viability, T/C (second compound 0.316 µM, first compound 0.1 µM) of 135% and a viability, T/C (second compound 0.316 µM, first compound 0.316 µM) of 103%. For the same compound, the viability, T/C (second compound 0.316 µM, first compound 1 µM) was 73.3%, the viability, T/C (second compound 0.316 µM, first compound 3.16 µM) was 1% and the viability, T/C (second compound 0.316 µM, first compound 10 µM) was 1.94%. For the same compound, the viability, T/C (second compound 1 µM, first compound 0.0316 µM) was 141%, the viability, T/C (second compound 1 µM, first compound 0.1 µM) was 123% and the viability, T/C (second compound 1 µM, first compound 0.316 µM) was 98.8%. The viability, T/C (second compound 1 µM, first compound 1 µM) was 58.1%, the viability, T/C (second compound 1 µM, first compound 3.16 µM) was 0.9% and the viability, T/C (second compound 1 µM, first compound 10 µM) was 1.4%. For the same compound, the viability, T/C (second compound 3.16 µM, first compound 0.0316 µM) was 110%, the viability, T/C (second compound 3.16 µM, first compound 0.1 µM) was 106% and the viability, T/C (second compound 3.16 µM, first compound 0.316 µM) was 67.4%. The viability, T/C (second compound 3.16 µM, first compound 1 µM) was 44.9%, the viability, T/C (second compound 3.16 µM, first compound 3.16 µM) was 0.63% and the viability, T/C (second compound 3.16 µM, first compound 10 µM) was 1.4%. It also gave a viability, T/C (second compound 10 µM, first compound 0.0316 µM) of 92.3%, a viability, T/C (second compound 10 µM, first compound 0.1 µM) of 83.5% and a viability, T/C (second compound 10 µM, first compound 0.316 µM) of 51.5%. The viability, T/C (second compound 10 µM, first compound 1 µM) was 37.1%, the viability, T/C (second compound 10 µM, first compound 3.16 µM) was 0.25% and the viability, T/C (second compound 10 µM, first compound 10 µM) was 0.31%.
